Test results reported in patent JP2011231022A, “イミダゾロン誘導体” (Ajinomoto Co Inc, priority 2010, dated 2011).
Like-named read-outs stand apart in the source and are kept apart here. Each block holds one compound with its values, some of them ahead of it.

What was measured:
[1] = system: phenylephrine-induced hypertensive model rat (フェニレフリン昇圧モデルラット); test: Hypotensive action in phenylephrine-induced hypertensive model rats (Example 8); format: in vivo; settings: Wistar male rat; 40 mg/kg intravenous; phenylephrine 75 μg/kg/min
[2] = Oral absorption in fasted male ICR mice, plasma concentration by LC/MS (Example 7); format: in vivo; settings: mouse (ICR male, fasted), 100 mg/kg oral
aorta ring (大動脈リング) [3] = test: Endothelium-derived NO mechanism study in isolated rat aorta rings: endothelium removal and inhibitors (Example 3); format: cell-based; settings: for relaxation of phenylephrine contraction with C-PTIO: NO scavenger C-PTIO 300 μM; for relaxation of phenylephrine contraction with C-PTIO / relaxation of phenylephrine contraction with L-NAME / relaxation of phenylephrine contraction with indomethacin / relaxation of phenylephrine contraction with ODQ: 15 min pretreatment; for relaxation of phenylephrine contraction with L-NAME: NOS inhibitor L-NAME 100 μM; for vasorelaxing action after endothelium removal: aorta ring with endothelium mechanically removed; for relaxation of phenylephrine contraction with indomethacin: cyclooxygenase inhibitor indomethacin 10 μM; for relaxation of phenylephrine contraction with ODQ: soluble guanylate cyclase inhibitor ODQ 1 μM
[4] = system: rat isolated blood vessel (ラット摘出血管); test: EC50 of vasorelaxation in phenylephrine-precontracted isolated rat aorta rings (Example 2); format: cell-based
aorta ring (大動脈リング) [5] = test: Involvement of PI3K in relaxation of isolated rat aorta rings, wortmannin pretreatment (Example 4); format: cell-based; settings: for relaxation rate: wortmannin (WO) 200 nM, 15 min pretreatment
[6] = system: Akt serine 473 residue (Aktセリン473残基); test: Phosphorylation of Akt serine 473 in isolated rat thoracic aorta rings (Examples 5 and 6); format: cell-based; settings: 5 min; for enhancement of Akt serine 473 phosphorylation: without wortmannin
[7] = system: eNOS serine 1177 residue (eNOSセリン1177残基); test: Phosphorylation of eNOS serine 1177 in isolated rat thoracic aorta rings (Examples 5 and 6); format: cell-based; settings: 5 min; for enhancement of eNOS serine 1177 phosphorylation: without wortmannin
[8] = system: rat isolated blood vessel, thoracic aorta ring (ラット摘出血管、大動脈リング); test: Vasorelaxation of phenylephrine-precontracted isolated rat thoracic aorta rings (Example 1, screening); format: cell-based; settings: 100 μM; 1 μM phenylephrine precontraction; endothelium intact
[9] = 100〜500 μM, wortmannin (WO) 200 nM, 20 min pretreatment
[10] = concentration giving 50% relaxation of phenylephrine contraction, 1〜100 μM, logistic method, read-out: EC50
[11] = 100 μM or 300 μM, wortmannin (WO) pretreatment

Compound: CC1N=C(NCCC[C@H](N)C(=O)O)NC1=O (stereo partly shown) [I−1, Nδ−(5−ヒドロ−5−メチル−4−イミダゾロン−2−イル)−L−オルニチン]
maximum decrease of mean blood pressure [1]: 12.7 mmHg
time from start of administration to onset of hypotensive action [1]: ~1 min
Cmax at 0.25 h ([2]; at 15 min after dosing, read-out: maximum plasma concentration): 174 µM
Tmax ([2]; read-out: time of maximum plasma concentration (converted)): 15 min
relaxation of phenylephrine contraction with C-PTIO (aorta ring (大動脈リング) [3]): 血管の弛緩が大幅に減弱した
relaxation of phenylephrine contraction with L-NAME (aorta ring (大動脈リング) [3]): 血管の弛緩がほとんど見られなかった
vasorelaxing action after endothelium removal (aorta ring (大動脈リング) [3]): 完全に消失した
relaxation of phenylephrine contraction with indomethacin (aorta ring (大動脈リング) [3]): 血管の弛緩に全く影響を与えなかった
relaxation of phenylephrine contraction with ODQ (aorta ring (大動脈リング) [3]): 血管の弛緩が大幅に減弱した
EC50 [4]: 13 µM
relaxation rate (aorta ring (大動脈リング) [5]; 50 μM): 10±3%
inhibition at 50 µM (aorta ring (大動脈リング) [5]; Rattus norvegicus, read-out: relaxation rate): 93 ± 3%

Compound: CC1(CO)N=C(NCCC[C@H](N)C(=O)O)NC1=O (stereo partly shown) [I−2, Nδ−(5−メチル−5−ヒドロキシメチル−4−イミダゾロン−2−イル)−L−オルニチン]
enhancement of Akt serine 473 phosphorylation ([6]; 100〜500 μM): Aktセリン473残基のリン酸化亢進作用を示した
Akt serine 473 phosphorylation after wortmannin pretreatment [6, 9]: 完全に抑制され
enhancement of eNOS serine 1177 phosphorylation ([7]; 100〜500 μM): 濃度依存的にeNOSセリン1177残基のリン酸化亢進作用を示した
eNOS serine 1177 phosphorylation after wortmannin pretreatment [7, 9]: 完全に抑制された

EC50 [4, 10]: 71 µM
Compound: N[C@@H](CCCNC1=NC(CCO)C(=O)N1)C(=O)O (stereo partly shown) [I−3, Nδ−[5−ヒドロ−5−(2−ヒドロキシエチル)−4−イミダゾロン−2−イル]−L−オルニチン]
enhancement of Akt serine 473 phosphorylation ([6]; 100〜500 μM): Aktセリン473残基のリン酸化亢進作用を示した
Akt serine 473 phosphorylation after wortmannin pretreatment [6, 9]: 完全に抑制され
relaxation of phenylephrine contraction with C-PTIO (aorta ring (大動脈リング) [3]): 血管の弛緩が大幅に減弱した
relaxation of phenylephrine contraction with L-NAME (aorta ring (大動脈リング) [3]): 血管の弛緩がほとんど見られなかった
vasorelaxing action after endothelium removal (aorta ring (大動脈リング) [3]): 完全に消失した
relaxation of phenylephrine contraction with indomethacin (aorta ring (大動脈リング) [3]): 血管の弛緩に全く影響を与えなかった
relaxation of phenylephrine contraction with ODQ (aorta ring (大動脈リング) [3]): 血管の弛緩が大幅に減弱した
relaxation rate (aorta ring (大動脈リング) [5]; 100 μ (so in the source)): 3±3%
inhibition at 100 µM (aorta ring (大動脈リング) [5]; Rattus norvegicus, 100 μ (so in the source), untreated control (no wortmannin), read-out: relaxation rate): 62 ± 8%
enhancement of eNOS serine 1177 phosphorylation ([7]; 100〜500 μM): 濃度依存的にeNOSセリン1177残基のリン酸化亢進作用を示した
eNOS serine 1177 phosphorylation after wortmannin pretreatment [7, 9]: 完全に抑制された

EC50 [4, 10]: 25 µM
Compound: N[C@@H](CCCNC1=NC(CC(O)C(O)CO)C(=O)N1)C(=O)O (stereo partly shown) [I−7, Nδ−[5−ヒドロ−5−(2,3,4−トリヒドロキシブチル)−4−イミダゾロン−2−イル]−L−オルニチン]
Akt serine 473 phosphorylation after wortmannin pretreatment [6, 11]: 完全に抑制され
enhancement of Akt serine 473 phosphorylation ([6]; 300 μM): Aktセリン473残基のリン酸化亢進作用を示した
relaxation of phenylephrine contraction with C-PTIO (aorta ring (大動脈リング) [3]): 血管の弛緩が大幅に減弱した
relaxation of phenylephrine contraction with L-NAME (aorta ring (大動脈リング) [3]): 血管の弛緩がほとんど見られなかった
vasorelaxing action after endothelium removal (aorta ring (大動脈リング) [3]): 完全に消失した
relaxation of phenylephrine contraction with indomethacin (aorta ring (大動脈リング) [3]): 血管の弛緩に全く影響を与えなかった
relaxation of phenylephrine contraction with ODQ (aorta ring (大動脈リング) [3]): 血管の弛緩が大幅に減弱した
relaxation rate (aorta ring (大動脈リング) [5]; 50 μM): 5±2%
inhibition at 50 µM (aorta ring (大動脈リング) [5]; Rattus norvegicus, 50 μM, untreated control (no wortmannin), read-out: relaxation rate): 90 ± 5%
eNOS serine 1177 phosphorylation after wortmannin pretreatment [7, 11]: 完全に抑制された
enhancement of eNOS serine 1177 phosphorylation ([7]; 300 μM): eNOSセリン1177残基のリン酸化亢進作用を示した

Compound: N=C(N)NCCC[C@H](N)C(=O)O [L−アルギニン]
vasodilating action (relaxation of phenylephrine contraction) [8]: 血管拡張作用が見出せなかった

Compound: OC[C@H]1OC(O)[C@H](O)[C@@H](O)[C@@H]1O (stereo partly shown) [グルコース]
vasodilating action (relaxation of phenylephrine contraction) [8]: 血管拡張作用が見出せなかった

Compound: N=C(N)NCCC[C@H](NCC(=O)[C@@H](O)[C@H](O)[C@H](O)CO)C(=O)O [フラクトシルアルギニン]
vasodilating action (relaxation of phenylephrine contraction) [8]: 血管拡張作用が見出せなかった
